Results published in patent US12258328B2, “6-membered heteroaryl-containing aminopyridine compounds as EGFR inhibitors” (YUHAN CORPORATION, priority 2021, dated 2025).
Read-outs that look alike come from different tables or passages of the source.

What was measured:
[1] = target: EGFR L858R/T790M/C797S (Homo sapiens, UniProt P00533, C797S/L858R/T790M); test: Biochemical EGFR kinase assay (Lance Ultra TR-FRET), triple mutant L858R/T790M/C797S
Method in brief: (§1)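 Step 1: compound in kinase buffer, 0.003–10 μM. Step 2: kinase reaction 1 h at room temperature. Step 4: TR-FRET read at 615/665 nm; IC50 calculated.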

[2] = target: EGFR wildtype (Homo sapiens, UniProt P00533); test: Biochemical EGFR kinase assay (Lance Ultra TR-FRET), wildtype
Chain of EGFR wildtype (P00533 25-1210): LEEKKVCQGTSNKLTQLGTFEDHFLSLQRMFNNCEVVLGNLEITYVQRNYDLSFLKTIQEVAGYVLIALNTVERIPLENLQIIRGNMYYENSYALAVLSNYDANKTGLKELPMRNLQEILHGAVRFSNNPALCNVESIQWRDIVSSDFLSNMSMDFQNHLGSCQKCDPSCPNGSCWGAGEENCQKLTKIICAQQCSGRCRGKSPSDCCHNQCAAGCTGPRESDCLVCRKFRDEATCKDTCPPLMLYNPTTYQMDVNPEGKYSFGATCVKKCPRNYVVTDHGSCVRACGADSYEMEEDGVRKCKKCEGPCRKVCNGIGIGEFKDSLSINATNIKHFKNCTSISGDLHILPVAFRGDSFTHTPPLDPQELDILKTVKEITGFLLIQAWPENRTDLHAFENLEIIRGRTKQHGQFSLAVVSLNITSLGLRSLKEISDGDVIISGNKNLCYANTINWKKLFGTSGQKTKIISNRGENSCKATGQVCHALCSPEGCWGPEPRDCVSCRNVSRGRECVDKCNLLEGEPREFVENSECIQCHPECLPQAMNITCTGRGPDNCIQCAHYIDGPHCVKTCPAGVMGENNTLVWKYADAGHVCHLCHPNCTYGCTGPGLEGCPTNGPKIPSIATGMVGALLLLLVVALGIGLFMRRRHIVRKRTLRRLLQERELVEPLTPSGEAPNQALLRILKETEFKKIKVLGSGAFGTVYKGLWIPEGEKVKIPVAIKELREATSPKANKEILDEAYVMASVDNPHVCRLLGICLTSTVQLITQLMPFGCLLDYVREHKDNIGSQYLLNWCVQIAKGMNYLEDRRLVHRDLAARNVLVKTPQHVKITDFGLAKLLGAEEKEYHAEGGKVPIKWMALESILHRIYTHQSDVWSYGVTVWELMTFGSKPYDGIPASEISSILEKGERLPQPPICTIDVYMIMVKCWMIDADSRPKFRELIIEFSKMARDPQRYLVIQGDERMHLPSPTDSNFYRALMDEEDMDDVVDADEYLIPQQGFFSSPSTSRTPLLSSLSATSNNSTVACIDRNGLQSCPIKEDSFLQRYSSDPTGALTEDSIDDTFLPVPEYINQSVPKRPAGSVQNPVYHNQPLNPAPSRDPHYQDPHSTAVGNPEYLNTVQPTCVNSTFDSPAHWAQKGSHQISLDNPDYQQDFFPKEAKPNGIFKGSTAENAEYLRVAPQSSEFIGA
Method in brief: as §1

[3] = target: EGFR del19/C797S (Homo sapiens, UniProt P00533, C797S/DEL746-750); test: Biochemical EGFR kinase assay (Lance Ultra TR-FRET), double mutant del19/C797S
Chain of EGFR del19/C797S (P00533 with tags, fused parts or gaps DEL746-750/C797S): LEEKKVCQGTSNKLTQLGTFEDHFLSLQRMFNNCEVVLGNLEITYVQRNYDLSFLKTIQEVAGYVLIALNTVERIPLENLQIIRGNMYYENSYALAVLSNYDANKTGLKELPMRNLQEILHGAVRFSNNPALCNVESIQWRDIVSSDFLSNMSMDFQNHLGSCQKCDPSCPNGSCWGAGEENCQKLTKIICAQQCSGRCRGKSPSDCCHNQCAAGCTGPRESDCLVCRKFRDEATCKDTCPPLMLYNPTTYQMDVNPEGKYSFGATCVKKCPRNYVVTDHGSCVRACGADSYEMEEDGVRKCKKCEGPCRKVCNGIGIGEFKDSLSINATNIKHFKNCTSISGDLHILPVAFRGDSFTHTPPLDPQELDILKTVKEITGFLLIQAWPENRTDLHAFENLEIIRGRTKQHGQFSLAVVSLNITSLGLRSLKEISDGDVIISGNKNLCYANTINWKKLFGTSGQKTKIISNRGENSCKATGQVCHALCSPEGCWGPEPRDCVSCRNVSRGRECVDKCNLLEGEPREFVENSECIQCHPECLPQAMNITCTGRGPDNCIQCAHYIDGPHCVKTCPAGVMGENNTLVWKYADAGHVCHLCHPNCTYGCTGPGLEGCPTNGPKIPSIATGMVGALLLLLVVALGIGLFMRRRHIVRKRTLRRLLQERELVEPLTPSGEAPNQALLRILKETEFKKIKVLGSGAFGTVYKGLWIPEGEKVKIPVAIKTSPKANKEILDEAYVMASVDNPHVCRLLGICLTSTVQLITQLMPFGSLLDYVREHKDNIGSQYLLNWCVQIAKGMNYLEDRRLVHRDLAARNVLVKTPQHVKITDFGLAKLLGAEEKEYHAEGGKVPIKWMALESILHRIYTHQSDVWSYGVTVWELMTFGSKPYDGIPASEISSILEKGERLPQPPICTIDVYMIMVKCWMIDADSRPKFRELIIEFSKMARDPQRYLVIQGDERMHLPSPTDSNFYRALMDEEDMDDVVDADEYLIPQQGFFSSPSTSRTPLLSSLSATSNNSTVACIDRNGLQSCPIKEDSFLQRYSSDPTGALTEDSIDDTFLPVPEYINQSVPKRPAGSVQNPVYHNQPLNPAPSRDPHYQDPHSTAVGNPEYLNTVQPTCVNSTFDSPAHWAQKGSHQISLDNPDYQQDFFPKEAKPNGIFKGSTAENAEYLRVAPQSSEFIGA
Method in brief: as §1

[4] = target: EGFR L858R/C797S (Homo sapiens, UniProt P00533, C797S/L858R); test: Biochemical EGFR kinase assay (Lance Ultra TR-FRET), double mutant L858R/C797S
Chain of EGFR L858R/C797S (P00533 25-1210 C797S/L858R): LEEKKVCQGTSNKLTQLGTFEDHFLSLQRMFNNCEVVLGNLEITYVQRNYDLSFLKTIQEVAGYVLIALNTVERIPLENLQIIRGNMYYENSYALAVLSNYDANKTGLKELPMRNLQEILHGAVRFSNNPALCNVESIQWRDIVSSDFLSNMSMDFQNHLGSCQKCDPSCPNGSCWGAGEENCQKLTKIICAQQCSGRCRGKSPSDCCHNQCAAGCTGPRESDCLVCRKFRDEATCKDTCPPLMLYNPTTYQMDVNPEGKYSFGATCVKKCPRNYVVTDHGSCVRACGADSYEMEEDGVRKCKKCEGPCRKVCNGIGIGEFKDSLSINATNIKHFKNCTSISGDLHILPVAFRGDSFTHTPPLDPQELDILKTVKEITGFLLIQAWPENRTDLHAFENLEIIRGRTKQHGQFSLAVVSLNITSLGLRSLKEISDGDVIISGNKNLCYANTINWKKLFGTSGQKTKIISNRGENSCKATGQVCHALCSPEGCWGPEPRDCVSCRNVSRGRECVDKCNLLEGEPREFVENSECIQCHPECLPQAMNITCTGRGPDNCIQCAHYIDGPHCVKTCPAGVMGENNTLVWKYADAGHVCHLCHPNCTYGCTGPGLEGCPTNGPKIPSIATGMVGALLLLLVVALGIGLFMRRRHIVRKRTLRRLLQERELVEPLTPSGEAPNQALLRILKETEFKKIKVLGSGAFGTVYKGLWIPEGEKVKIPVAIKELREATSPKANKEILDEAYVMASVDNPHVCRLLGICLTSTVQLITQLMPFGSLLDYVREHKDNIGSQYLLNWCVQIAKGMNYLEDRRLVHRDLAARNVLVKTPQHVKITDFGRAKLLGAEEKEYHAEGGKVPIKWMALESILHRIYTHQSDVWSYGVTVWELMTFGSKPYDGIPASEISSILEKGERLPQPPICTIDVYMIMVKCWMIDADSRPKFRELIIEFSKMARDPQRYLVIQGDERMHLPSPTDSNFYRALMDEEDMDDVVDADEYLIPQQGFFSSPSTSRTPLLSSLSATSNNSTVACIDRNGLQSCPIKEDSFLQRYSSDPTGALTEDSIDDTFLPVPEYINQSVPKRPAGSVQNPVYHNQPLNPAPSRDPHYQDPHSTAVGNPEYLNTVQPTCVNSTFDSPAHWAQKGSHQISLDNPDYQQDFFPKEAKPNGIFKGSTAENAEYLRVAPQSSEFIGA
Method in brief: as §1

[5] = target: EGFR del19/T790M/C797S (Homo sapiens, UniProt P00533, C797S/DEL746-750/T790M); test: Biochemical EGFR kinase assay (Lance Ultra TR-FRET), triple mutant del19/T790M/C797S
Method in brief: as §1

[6] = ATP at Km, read-out: IC50 L858R/T790M/C797S, Km ATP
[7] = IC50 L858R/T790M/C797S, 100 μM ATP
[8] = ATP at Km, read-out: IC50 WT, Km ATP
[9] = ATP at Km, read-out: IC50 del19/C797S, Km ATP
[10] = ATP at Km, read-out: IC50 L858R/C797S, Km ATP
[11] = ATP at Km, read-out: IC50 del19/T790M/C797S, Km ATP
[12] = IC50 del19/T790M/C797S, 100 μM ATP
[13] = IC50 L858R/T790M/C797S (nM) 100 μM ATP, 100 μM ATP
[14] = Km ATP, read-out: IC50 L858R/T790M/C797S (nM) Km ATP
[15] = IC50 WT (nM) 100 μM ATP, 100 μM ATP
[16] = Km ATP, read-out: IC50 WT (nM) Km ATP
[17] = IC50 del19/C797S (nM) 100 μM ATP, 100 μM ATP
[18] = Km ATP, read-out: IC50 del19/C797S (nM) Km ATP
[19] = IC50 L858R/C797S (nM) 100 μM ATP, 100 μM ATP
[20] = Km ATP, read-out: IC50 L858R/C797S (nM) Km ATP
[21] = IC50 del19/T790M/C797S (nM) 100 μM ATP, 100 μM ATP
[22] = Km ATP, read-out: IC50 del19/T790M/C797S (nM) Km ATP

Chain of EGFR L858R/T790M/C797S (P00533 25-1210 T790M/C797S/L858R): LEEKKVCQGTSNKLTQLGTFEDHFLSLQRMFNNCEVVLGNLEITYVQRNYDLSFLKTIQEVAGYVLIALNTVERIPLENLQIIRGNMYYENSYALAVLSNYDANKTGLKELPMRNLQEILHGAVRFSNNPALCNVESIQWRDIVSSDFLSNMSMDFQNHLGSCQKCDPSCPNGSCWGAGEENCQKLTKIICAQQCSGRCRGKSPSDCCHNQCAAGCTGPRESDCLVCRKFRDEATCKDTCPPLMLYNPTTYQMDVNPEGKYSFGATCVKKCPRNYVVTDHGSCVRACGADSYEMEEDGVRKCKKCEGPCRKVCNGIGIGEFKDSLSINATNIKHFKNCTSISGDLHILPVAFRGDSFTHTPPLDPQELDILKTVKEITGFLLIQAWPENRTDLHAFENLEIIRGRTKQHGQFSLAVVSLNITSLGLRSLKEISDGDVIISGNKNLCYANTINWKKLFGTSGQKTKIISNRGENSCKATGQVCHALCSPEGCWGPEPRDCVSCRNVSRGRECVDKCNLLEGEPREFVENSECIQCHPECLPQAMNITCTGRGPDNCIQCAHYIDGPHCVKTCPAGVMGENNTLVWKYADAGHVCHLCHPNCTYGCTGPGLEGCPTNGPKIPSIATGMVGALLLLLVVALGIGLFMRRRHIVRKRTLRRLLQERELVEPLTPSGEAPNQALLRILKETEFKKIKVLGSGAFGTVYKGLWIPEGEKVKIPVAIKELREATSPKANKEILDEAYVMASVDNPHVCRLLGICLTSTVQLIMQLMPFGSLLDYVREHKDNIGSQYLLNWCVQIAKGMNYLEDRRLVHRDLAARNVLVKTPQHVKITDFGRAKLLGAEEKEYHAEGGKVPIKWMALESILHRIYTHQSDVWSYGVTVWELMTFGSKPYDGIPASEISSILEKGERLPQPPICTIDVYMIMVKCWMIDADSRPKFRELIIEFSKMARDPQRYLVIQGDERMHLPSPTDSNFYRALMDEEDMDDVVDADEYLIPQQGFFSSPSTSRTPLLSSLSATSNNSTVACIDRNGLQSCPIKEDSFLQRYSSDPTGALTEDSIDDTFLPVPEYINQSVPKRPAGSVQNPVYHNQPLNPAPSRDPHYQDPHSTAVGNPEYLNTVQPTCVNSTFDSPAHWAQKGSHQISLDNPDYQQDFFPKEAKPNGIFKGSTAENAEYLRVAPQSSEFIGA

CC(C)(O)C1CCC(Nc2cc(Nc3ccnc(-c4cnn(S(=O)(=O)C5CC5)c4)n3)ncc2-c2ccc(C(O)C(F)(F)F)cn2)CC1 (centres unmarked) [Example 229, 2-((1s,4s)-4-((6′-((2-(1-(Cyclopropylsulfonyl)-1H-pyrazol-4-yl)pyrimidin-4-yl)amino)-5-(2,2,2-trifluoro-1-hydroxyethyl)-[2,3′-bipyridin]-4′-yl)amino)cyclohexyl)propan-2-ol]
IC50 [1, 6]: 0.9 nM | IC50 [1, 7]: 1.9 nM | IC50 [2, 8]: 17.4 nM | IC50 ([2]; IC50 WT, 100 μM ATP): 9480 nM | IC50 [3, 9]: 4.8 nM | IC50 ([3]; IC50 del19/C797S, 100 μM ATP): 20.8 nM | IC50 [4, 10]: 11.5 nM | IC50 ([4]; IC50 L858R/C797S, 100 μM ATP): 96.1 nM | IC50 [5, 11]: 3.3 nM | IC50 [5, 12]: 4.4 nM

CC(F)(F)c1ccc(-c2cnc(Nc3ccnc(-c4cnn(S(=O)(=O)C5CC5)c4)n3)cc2N[C@H]2CC[C@@H](C(C)(C)O)CC2)nc1 [Example 242, 2-((1s,4s)-4-((6′-((2-(1-(Cyclopropylsulfonyl)-1H-pyrazol-4-yl)pyrimidin-4-yl)amino)-5-(1,1-difluoroethyl)-[2,3′-bipyridin]-4′-yl)amino)cyclohexyl)propan-2-ol]
IC50 [1, 6]: 2.5 nM | IC50 [1, 7]: 11.3 nM | IC50 [2, 8]: 53.5 nM | IC50 ([2]; IC50 WT, 100 μM ATP): > 10000 nM | IC50 [3, 9]: 15.2 nM | IC50 ([3]; IC50 del19/C797S, 100 μM ATP): 18.7 nM | IC50 [4, 10]: 10.7 nM | IC50 ([4]; IC50 L858R/C797S, 100 μM ATP): 179 nM | IC50 [5, 11]: 4.8 nM | IC50 [5, 12]: 9.7 nM

CN(C)C[C@H]1CC[C@@H](Nc2cc(Nc3ccnc(-c4cnn(S(=O)(=O)C5CC5)c4)n3)ncc2-c2cc(C(C)(C)O)ccn2)CC1 [Example 110, 2-(6′-((2-(1-(Cyclopropylsulfonyl)-1H-pyrazol-4-yl)pyrimidin-4-yl)amino)-4′-(((1s,4s)-4-((dimethylamino)methyl)cyclohexyl)amino)-[2,3′-bipyridin]-4-yl)propan-2-ol]
IC50 [1, 13]: 0.1 nM | IC50 [1, 14]: 0.1 nM | IC50 [2, 15]: 178 nM | IC50 [2, 16]: 0.9 nM | IC50 [3, 17]: 0.3 nM | IC50 [3, 18]: 0.3 nM | IC50 [4, 19]: 0.5 nM | IC50 [4, 20]: 0.04 nM | IC50 [5, 21]: 0.2 nM | IC50 [5, 22]: 0.1 nM

C[C@]1(O)CC[C@@H](Nc2nccc(-c3cnc(Nc4ccnc(-c5cnn(S(=O)(=O)C6CC6)c5)n4)cc3N[C@H]3CC[C@@](C)(O)CC3)n2)CC1 [Example 191, (1s,4s)-4-((4-(6-((2-(1-(Cyclopropylsulfonyl)-1H-pyrazol-4-yl)pyrimidin-4-yl)amino)-4-(((1s,4s)-4-hydroxy-4-methylcyclohexyl)amino)pyridin-3-yl)pyrimidin-2-yl)amino)-1-methylcyclohexan-1-ol]
IC50 [1, 6]: 0.3 nM | IC50 [2, 8]: 27.4 nM | IC50 ([2]; IC50 WT, 100 μM ATP): > 10000 nM | IC50 [3, 9]: 2.3 nM | IC50 ([3]; IC50 del19/C797S, 100 μM ATP): 6.5 nM | IC50 [4, 10]: 1.6 nM | IC50 ([4]; IC50 L858R/C797S, 100 μM ATP): 26.4 nM | IC50 [5, 11]: 1 nM | IC50 [5, 12]: 1.7 nM

CC(O)(c1ccc(-c2cnc(Nc3ccnc(-c4cnn(S(=O)(=O)C5CC5)c4)n3)cc2NC2CCC(CO)CC2)nc1)C(F)(F)F (centres unmarked) [Example 231, 2-(6′-((2-(1-(Cyclopropylsulfonyl)-1H-pyrazol-4-yl)pyrimidin-4-yl)amino)-4′-(((1s,4s)-4-(hydroxymethyl)cyclohexyl)amino)-[2,3′-bipyridin]-5-yl)-1,1,1-trifluoropropan-2-ol]
IC50 [1, 6]: 0.4 nM | IC50 [1, 7]: 0.9 nM | IC50 [2, 8]: 4.1 nM | IC50 ([2]; IC50 WT, 100 μM ATP): 502 nM | IC50 [3, 9]: 1.7 nM | IC50 ([3]; IC50 del19/C797S, 100 μM ATP): 6.4 nM | IC50 [4, 10]: 1.2 nM | IC50 ([4]; IC50 L858R/C797S, 100 μM ATP): 4.6 nM | IC50 [5, 11]: 1.4 nM | IC50 [5, 12]: 2 nM

CC(C)(O)c1ccc(-c2cnc(Nc3ccnc(-c4cnn(S(=O)(=O)C5CC5)c4)n3)cc2N[C@H]2CC[C@@H](CO)CC2)nn1 [Example 87, 2-(6-(6-((2-(1-(Cyclopropylsulfonyl)-1H-pyrazol-4-yl)pyrimidin-4-yl)amino)-4-(((1s,4s)-4-(hydroxymethyl)cyclohexyl)amino)pyridin-3-yl)pyridazin-3-yl)propan-2-ol]
IC50 [1, 13]: 0.1 nM | IC50 [1, 14]: 0.1 nM | IC50 [2, 15]: 992 nM | IC50 [2, 16]: 2.2 nM | IC50 [3, 17]: 0.5 nM | IC50 [3, 18]: 0.4 nM | IC50 [4, 19]: 4.7 nM | IC50 [4, 20]: 0.6 nM | IC50 [5, 21]: 5.9 nM | IC50 [5, 22]: 0.1 nM

CC(C)(O)[C@H]1CC[C@@H](Nc2cc(Nc3ccnc(-c4cnn(S(=O)(=O)C5CC5)c4)n3)ncc2-c2ccc(OCCN3CCC3)cn2)CC1 [Example 217, 2-((1s,4s)-4-((5-(2-(Azetidin-1-yl)ethoxy)-6′-((2-(1-(cyclopropylsulfonyl)-1H-pyrazol-4-yl)pyrimidin-4-yl)amino)-[2,3′-bipyridin]-4′-yl)amino)cyclohexyl)propan-2-ol]
IC50 [1, 6]: 0.3 nM | IC50 [1, 7]: 0.3 nM | IC50 [2, 8]: 0.8 nM | IC50 ([2]; IC50 WT, 100 μM ATP): 118 nM | IC50 [3, 9]: 0.2 nM | IC50 ([3]; IC50 del19/C797S, 100 μM ATP): 0.3 nM | IC50 [4, 10]: 0.2 nM | IC50 ([4]; IC50 L858R/C797S, 100 μM ATP): 0.4 nM | IC50 [5, 11]: 0.8 nM | IC50 [5, 12]: 0.7 nM

CN(C)CCOc1cnc(-c2cnc(Nc3ccnc(-c4cnn(S(=O)(=O)C5CC5)c4)n3)cc2N[C@H]2CC[C@@H](C(C)(C)O)CC2)cn1 [Example 117, 2-((1s,4s)-4-((2-((2-(1-(Cyclopropylsulfonyl)-1H-pyrazol-4-yl)pyrimidin-4-yl)amino)-5-(5-(2-(dimethylamino)ethoxy)pyrazin-2-yl)pyridin-4-yl)amino)cyclohexyl)propan-2-ol]
IC50 [1, 13]: 0.1 nM | IC50 [1, 14]: 0.1 nM | IC50 [2, 15]: 6500 nM | IC50 [2, 16]: 1.9 nM | IC50 [3, 17]: 0.5 nM | IC50 [3, 18]: 0.3 nM | IC50 [4, 19]: 0.5 nM | IC50 [4, 20]: 0.2 nM | IC50 [5, 21]: 0.4 nM | IC50 [5, 22]: 0.2 nM

CC(F)(F)c1ccc(-c2cnc(Nc3ccnc(-c4cnn(S(=O)(=O)C5CC5)c4)n3)cc2N[C@H]2CC[C@@H](CO)CC2)nc1 [Example 241, ((1s,4s)-4-((6′-((2-(1-(Cyclopropylsulfonyl)-1H-pyrazol-4-yl)pyrimidin-4-yl)amino)-5-(1,1-difluoroethyl)-[2,3′-bipyridin]-4′-yl)amino)cyclohexyl)methanol]
IC50 [1, 6]: 1.8 nM | IC50 [1, 7]: 6.9 nM | IC50 [2, 8]: 20.3 nM | IC50 ([2]; IC50 WT, 100 μM ATP): 2640 nM | IC50 [3, 9]: 6.3 nM | IC50 ([3]; IC50 del19/C797S, 100 μM ATP): 12.9 nM | IC50 [4, 10]: 2.9 nM | IC50 ([4]; IC50 L858R/C797S, 100 μM ATP): 22 nM | IC50 [5, 11]: 2.3 nM | IC50 [5, 12]: 4.4 nM

CN(C)C(=O)[C@H]1CC[C@@H](Nc2cc(Nc3ccnc(-c4cnn(S(=O)(=O)C5CC5)c4)n3)ncc2-c2ccc(C(C)(C)O)cn2)CC1 [Example 172, (1s,4s)-4-((6′-((2-(1-(Cyclopropylsulfonyl)-1H-pyrazol-4-yl)pyrimidin-4-yl)amino)-5-(2-hydroxypropan-2-yl)-[2,3′-bipyridin]-4′-yl)amino)-N,N-dimethylcyclohexane-1-carboxamide]
IC50 [1, 6]: 0.2 nM | IC50 [1, 7]: 0.2 nM | IC50 [2, 8]: 0.4 nM | IC50 ([2]; IC50 WT, 100 μM ATP): 93.2 nM | IC50 [3, 9]: 0.3 nM | IC50 ([3]; IC50 del19/C797S, 100 μM ATP): 0.8 nM | IC50 [4, 10]: 1.3 nM | IC50 ([4]; IC50 L858R/C797S, 100 μM ATP): 4.8 nM | IC50 [5, 11]: 0.7 nM | IC50 [5, 12]: 0.6 nM

CN(C)CCNc1ccnc(-c2cnc(Nc3ccnc(-c4cnn(S(=O)(=O)C5CC5)c4)n3)cc2N[C@H]2CC[C@@](C)(O)CC2)c1 [Example 276, (1s,4s)-4-((6′-((2-(1-(Cyclopropylsulfonyl)-1H-pyrazol-4-yl)pyrimidin-4-yl)amino)-4-((2-(dimethylamino)ethyl)amino)-[2,3′-bipyridin]-4′-yl)amino)-1-methylcyclohexan-1-ol]
IC50 [1, 6]: 0.2 nM | IC50 [1, 7]: 0.5 nM | IC50 [2, 8]: 2.9 nM | IC50 ([2]; IC50 WT, 100 μM ATP): 2530 nM | IC50 [3, 9]: 0.3 nM | IC50 ([3]; IC50 del19/C797S, 100 μM ATP): 0.7 nM | IC50 [4, 10]: 0.7 nM | IC50 ([4]; IC50 L858R/C797S, 100 μM ATP): 2.3 nM | IC50 [5, 11]: 0.8 nM | IC50 [5, 12]: 1.1 nM

CC1(O)CCC(Nc2cc(Nc3ccnc(-c4cnn(S(=O)(=O)C5CC5)c4)n3)ncc2-c2cc(CN3CC(O)C3)ccn2)CC1 (centres unmarked) [Example 288, 1-((6′-((2-(1-(Cyclopropylsulfonyl)-1H-pyrazol-4-yl)pyrimidin-4-yl)amino)-4′-(((1s,4s)-4-hydroxy-4-methylcyclohexyl)amino)-[2,3′-bipyridin]-4-yl)methyl) azetidin-3-ol]
IC50 [1, 6]: 0.1 nM | IC50 [1, 7]: 0.2 nM | IC50 [2, 8]: 0.7 nM | IC50 ([2]; IC50 WT, 100 μM ATP): 2000 nM | IC50 [3, 9]: 0.2 nM | IC50 ([3]; IC50 del19/C797S, 100 μM ATP): 0.5 nM | IC50 [4, 10]: 0.3 nM | IC50 ([4]; IC50 L858R/C797S, 100 μM ATP): 6.8 nM | IC50 [5, 11]: 0.2 nM | IC50 [5, 12]: 0.3 nM
